Here are results for two molecules from patent US11359178B2, “Method for producing parasympathetic neurons” (NATIONAL INSTITUTE OF ADVANCED INDUSTRIAL SCIENCE AND …, priority 2018, dated 2022).

Assay [1] relates to autonomic neural progenitor cells. In words: Induction of autonomic neural progenitor cells to differentiate into parasympathetic neurons, immune cell staining (TH, ChAT, PHOX2B, MAP2). The format is cell-based, Human. Here is the method:
A 24-well plate coated with poly-L-ornithine and laminin was prepared by the following procedure. The plate was coated for one hour with a PLO solution (20 μg/mL) prepared with DW, washed once with DW, and coated for two hours with a laminin solution (5 μg/mL) prepared with PBS. Subsequently, the N2 medium was supplemented with 10 μM FSK, 10 ng/mL BDNF, 10 ng/mL GDNF, 10 ng/mL NT-3, 10 ng/mL NGF, and 50 μg/mL Ascorbic Acid (all final concentrations) to prepare a neural differentiation medium (NDM).
The following four kinds of differentiation-inducing media were prepared using NDM:
Differentiation-inducing medium 1: NDM+10 ng/mL PMA (final concentration)
Differentiation-inducing medium 2: NDM+1 μM RA (final concentration)
Differentiation-inducing medium 3: NDM+10 ng/mL PMA+1 μM RA (both final concentrations)
Differentiation-inducing medium 4: NDM only (by a known method)
The autonomic neural progenitor cells obtained by the above-described Step 5 were washed once with PBS, followed by addition of TrypLE Express Enzyme (250 μL/well), and cells were exfoliated by incubating the medium for five minutes. 10% FBS-containing DMEM was added to terminate the enzyme reaction, and the cells were collected in a centrifuge tube. After the medium was centrifuged at 200×g for four minutes, the supernatant was removed, cells were suspended with NDM, and the cells were counted. […] The media cultured for at least 20 days from the start of culturing with the differentiation-inducing media 1 to 4 were analyzed by immune staining and intracellular calcium imaging following the procedure described below. […]
The primary antibody solution was removed, and the plate was washed twice with 0.2% Tween 20/PBS, followed by addition of a secondary antibody/Can Get Signal Solution A (1000-fold diluted Alexa Fluro488 or 1000-fold diluted Alexa Fluor555) or 3000-fold diluted Hoechst 33342 solution, and the mixture was allowed to stand for one hour at room temperature. The secondary antibody solution was removed, and the plate was washed twice with 0.2% Tween 20/PBS and then observed under a fluorescence microscope.

Assay [2] deals with GATA3. Particulars: Yamashita et al. 2002; Th2 cell differentiation; cited from earlier work.
Assay [3] deals with parasympathetic neurons obtained by culturing in the differentiation-inducing medium 3 (NDM+PMA+RA). The settings on record: nicotine 1 μM; neurons induced in NDM+PMA+RA, 13th to 37th day from start of culturing.
Method: Furthermore, response to nicotine stimulation for parasympathetic neurons obtained by culturing in the differentiation-inducing medium 3 (NDM+PMA+RA) was assessed by intracellular calcium imaging. 1 mg/mL Fluo-4 AM (Invitrogen, F14201)/DMSO was directly added to a medium on the differentiation induction culture 24th day at a final concentration of 5 μg/mL. After incubation in an incubator (37° C., 5% CO2) for 30 minutes, the medium was removed and replaced with Ringer's solution (149 mM NaCl, 2.8 mM KCl, 2 mM CaCl2, 1 mM MgCl2, 10 mM HEPES, 10 mM D-(+)-glucose [pH 7.4]), and changes in the intracellular calcium concentrations were measured by detecting changes in the fluorescence intensity. For the measurement, 300 frames were photographed at a frame rate of 2 fps using an Olympus microscope (IX81), EMCCD (Andor iXon), and MetaMorph Software (Molecular Devices). Additionally, nicotine stimulation was performed by adding nicotine to Ringer's solution at a final concentration of 1 μM. ImageJ was used for data analysis after measurement.
[4] abbreviates: differentiation induction 13th to 87th day from start of culturing, 10 ng/mL PMA and/or 1 μM RA in NDM, compared with NDM only (FIG. 2).

Consider `CCCCCCCCCCCCCC(=O)O[C@@H]1[C@@H](C)[C@@]2(O)[C@@H](C=C(CO)C[C@]3(O)C(=O)C(C)=C[C@@H]23)[C@@H]2C(C)(C)[C@]12OC(C)=O` [PMA, Phorbol 12-myristate 13-acetate], for which the differentiation induction efficiency entry in assay [1] (13th to 87th day, single additive in NDM, compared with NDM only) is reported as “reduced”. Besides, in assay [1] (setting [4]), the “ChAT positive cells (parasympathetic neuron marker)” value is on record as “markedly reduced” and the “TH positive cells (sympathetic neuron marker)” value is on record as “markedly reduced”. Also, in assay [2], the “expression of transcription factor GATA3” value is “enhance”.

On to `CN1CCCC1c1cccnc1` (single isomer, unassigned; (-)) [nicotine, (−)-Nicotine], for which the “response to nicotine stimulation (intracellular calcium, Fluo-4 AM fluorescence)” value in assay [3] was “strong response”.
